From a melting point compilation (Tetko et al.; mined from patent text by program, amines drawn as free bases though some values may be those of a salt)

| Structure (SMILES) | melting point [°C] |
| --- | --- |
| CC(=O)Nc1cc2c(c(C(=O)O)c1)NCCO2 | 253 |
| COc1cnc(OC(c2ccccc2)(c2ccccc2)c2ccccc2)cc1OC1CCCC1 | 132 to 133 |
| CC1CCC(=O)N1c1cc(-c2ccnc(Nc3cccc(Cl)c3)n2)ccn1 (stereo unspecified) | 162 to 164 |
| CCOP(=O)(/C=C/c1cn(-c2ccccc2)nc1OCc1ccc(OCc2nc(-c3ccc(C)c(C(=O)O)c3)oc2CC)c(OC)c1)OCC | 165 to 166 |
| O=C(c1ccc(-c2cc(Cl)ccc2OCc2ccccc2)cc1C(F)(F)F)N1CCCC1 | 143 to 144 |
| O=c1[nH]c(=O)n(C2CC(O)C(CO)O2)cc1C#CI (stereo unspecified) | 135 to 137 |
| CCCN(C1CC(C)(C)Oc2ccc(OCc3ccccc3)cc21)S(=O)(=O)CC (stereo unspecified) | 102 to 103 |
| CS(=O)(=O)c1ccc(-c2cnn(CC(F)(F)F)c(=O)c2C2=CCCCC2)cc1 | 75 to 81 |
| CCn1c(=S)sc2c(=N)n(NC(=O)c3ccco3)cnc21 | 226 |
| COc1ccc(-c2cnc(NC(=O)Cc3ccccc3)c(Cc3ccccc3)n2)cc1 | 198 to 202 |
| O=C(O)COCCCC1CCCN1c1cnc(-c2ccccc2)c(-c2ccccc2)n1 (stereo unspecified) | 137 to 139 |
| COC(=O)[C@@H]1C[C@H](OC(=O)Nc2ccc([N+](=O)[O-])cc2)C(=O)[C@H]2[C@@]1(C)CC[C@H]1C(=O)O[C@H](c3ccoc3)C[C@]21C | 251 to 253 |
| CCOC(=O)C(NC(C)=O)(C(=O)OCC)C1=Nc2ccc(Cl)cc2C(c2ccccc2Cl)=NC1 | 153 to 155 |
| O=C1CCCN1C(=O)NCCn1cccn1 | 62.5 to 63.5 |
| COc1ccc(C2Sc3ccccc3N(CCN(C)C)C(=O)C2OC(=O)c2ccccc2[N+](=O)[O-])cc1 (stereo unspecified) | 161 to 162 |
| CC(C)C(=O)NC1CCc2c(c3cc(C#N)ccc3n2Cc2ccccc2C(F)(F)F)C1 (stereo unspecified) | 222 to 225 |
| COc1ccc(Cn2cnc3c(-c4ccco4)nc(N(C(C)=O)C(C)=O)nc32)cc1 | 167 to 168 |
| Oc1c(I)cc(Br)cc1I | 122 to 124 |
| CCCCOC(Cl)C(=O)NCC1OC(C)C(C)O1 (stereo unspecified) | 28 |
| COc1cc(-c2cnc3[nH]c(=O)n(CC4CCCCC4)c3n2)ccn1 | 295 to 297 |
| O=C1CCC2(CCC(=O)N2c2ccc(Cc3ccc(N4C(=O)CCC45CCC(=O)O5)cc3)cc2)O1 (stereo unspecified) | 135 |

| Structure (SMILES) | melting point [°C] |
| --- | --- |
| O=C(CCl)Nc1ccc2c(c1NC(=O)c1ccc(F)cc1)C(=O)c1ccccc1C2=O | 184 to 185 |
| C=C=CS(=O)(=O)c1ncc(Cl)cn1 | 130 |
| ClCc1nc2ccccc2s1 | 34 |
| Nc1cccc(-c2ccc(CCN3CCN(c4nnnn4-c4ccc(F)cc4)CC3)cc2)n1 | 185 to 187 |
| COc1cc(Oc2cccc(C(F)(F)F)c2)nc(C(=S)Nc2ccccc2)c1 | 126 to 128 |
| Clc1ccc(Cn2cc(CN3CCC(c4ccccc4)(c4ccccc4)CC3)nn2)cc1 | 148 |
| O=C(OCc1ccccc1)N1CCC(NCC(O)Cn2ccnc2[N+](=O)[O-])C(O)C1 (stereo unspecified) | 140 to 142 |
| O=C(O)[C@@H]1CCCN1S(=O)(=O)CCS | 99 to 101 |
| C[Si](C)(C)c1cc(CCC(=O)O)co1 | 25 |
| CCCCOC(=O)c1cc(OCc2ccccc2)c2c(Cl)cc(Cl)cc2n1 | 130 to 132 |
| CCOP(=O)(CNCc1cccnc1-c1cc(OC)c(O)c(OC)c1)OCC | 99 to 101 |
| CC(C)(C)OC(=O)N1CCc2c(n(CCOc3ccccc3)c3cc(Cl)c(Cl)cc23)CC1 | 136 to 138 |
| NS(=O)(=O)c1ccc(NC(=O)c2ccc(F)cc2SSc2cc(F)ccc2C(=O)Nc2ccc(S(N)(=O)=O)cc2)cc1 | 309 to 310 |
| CN(C)Cc1nc(CSCCNc2ncc(CC3CCCO3)c(=O)[nH]2)cs1 (stereo unspecified) | 118 to 123 |
| CCCCCS(=O)(=O)NC(=O)OCc1ccc(OS(=O)(=O)CCC)cc1Oc1ncc(C(F)(F)F)cc1Cl | 86 to 89 |
| CNCc1ccccc1-c1ccc(C(=O)N2Cc3ccc(C(=O)NCc4cccnc4)n3Cc3ccccc32)cc1 | 149 to 150 |
| CC(=O)NCC1CCC(Nc2nc3c(s2)CCCc2ccc(F)cc2-3)CC1 (stereo unspecified) | 88 to 91 |
| CCCCNc1nc2cnnc(OCC)c2cc1C(=O)OCC | 98 to 99 |
| CCCCCCCCCCCCCCSc1ccc(C(=O)O)s1 | 106 to 108 |
| CCCCn1nc(C)c(C=O)c1Cc1ccc(-c2ccccc2-c2nnn[nH]2)cc1 | 64 to 70 |

More lines, now with the values ahead:

| melting point [°C] | Structure (SMILES) |
| --- | --- |
| 47 to 47.5 | O=C(OCCCc1nc(-c2ccc(Cl)cc2)co1)c1ccccc1 |
| 168 to 170 | CN1CCN(C(=O)Nc2c(C(=O)c3ccccc3)[nH]c3cc(Cl)ccc23)CC1 |
| 105 | CCCCc1ccc(CNC(=O)OC(C)(C)C)c(=O)n1Cc1ccc(-c2ccccc2-c2nnn[nH]2)cc1 |
| 166 | CCCC1=C(C(=O)OCC)C(c2cccc3ccsc23)c2c[nH]nc2N1 (stereo unspecified) |
| 109 to 115 | O=C(O)[C@@H]1CSC(c2ccccc2O)N1C(=O)CCBr (stereo partly specified) |
| 224 to 226 | CC1c2ccccc2COc2ccc(C(=O)O)cc21 (stereo unspecified) |
| 167 to 169 | O=P1(C2CCCCC2)c2ccccc2CN1c1ccccc1 (stereo unspecified) |
| 56 to 58 | Cc1ccccc1Oc1cccc(C=O)c1O |
| 119 to 122 | CCOC(=O)COc1ccc(NC(=O)c2ccc(C(C)(C)C)cc2)cc1 |
| 174 to 177 | Cn1c(CO)nc2ccc(-c3ccccc3)nc21 |
| 104 to 106 | CCOC(=O)/C=C/c1ccc(O)c(Cl)c1 |
| 109 to 112 | Cc1ccccc1OCC(O)CN(CCOc1ncccc1C(N)=O)Cc1ccccc1 (stereo unspecified) |
| 124 to 125 | COc1ccc(Cn2c(=O)c3ccccc3n(CCCCBr)c2=O)cc1 |
| 112 to 113 | Cc1ccc(C[C@H](N)[C@H](O)c2ccc(F)cc2)cc1OC(F)(F)C(F)F (racemic) |
| 206 to 207 | N#Cc1c[nH]c2cccc(O)c12 |
| 174 to 175 | NCCNC(=O)CCCOc1ccc(C2=NNC(=O)CC2)cc1 |
| 222 to 223 | COc1ccc(C(=O)Nc2ccc(C(C)=O)cc2)cc1 |
| 144 to 146 | COc1ccc2c(c1)CC(Nc1ccc(O)cc1)C2 (stereo unspecified) |
| 164 to 167 | O=C(O)CC1CCc2c(n(Cc3ccccc3)c3ccccc23)S1 (stereo unspecified) |
| 87 to 89 | CNc1nnc(SCc2ccccc2)s1 |
| 132 to 135 | OCCC1(CCO)c2ccccc2Sc2ccccc21 |
| 117 to 120 | CCCCOC(=O)c1c(N)c2cccnc2n(CC)c1=O |
| 168 | NC(=O)c1ccccc1-c1cnn(CCN2CCCCC2)c1 |
| 143 to 146 | Oc1cccc2c1CC1OC1C2 (stereo unspecified) |
| 147 to 148 | CCOC(=O)CN(C)C(=O)c1ccn2c1CNc1ccccc1C2 |
| 132 to 133 | CCOC(=O)C1=C(CSSc2ccccc2)NC(C)=C(C(=O)OC)C1c1cccc([N+](=O)[O-])c1 (stereo unspecified) |
| 130 to 132 | OC1Cc2c(Cl)cccc2Sc2ccc(C(F)(F)F)cc21 (stereo unspecified) |
| 255 | COc1ccc2ccc(N3C(=O)C4=C(SCCO4)C3=O)nc2n1 |
| 193 | CSc1ccc(C=CC(N)=O)cc1 |
| 124 to 126 | CNc1cccc(S(N)(=O)=O)n1 |
